Tested on: E. coli MegaX DH10B T1R cells
Type: cell-based, Escherichia coli
Settings: for MIC: antibiotics used in functional metagenomic selections of E. coli libraries
Text: To compare further the functions represented in the complete and cultured microbiota independent of annotation, antibiotic-resistance genes were captured from their microbiomes in expression vectors in Escherichia coli. Each E. coli library contained ˜1 GB of 1.5- to 4-kB fragments of microbiome DNA subcloned into an expression vector and was screened against a panel of 15 antibiotics and clinically relevant antibiotic combinations (Table 3). Genes encoding resistance to the same 14 antibiotics were captured in libraries prepared from complete and cultured fecal samples (FIG. 3G and Table 4). In one example, a screen for DNA fragments that confer resistance to the aminoglycoside amikacin produced candidate genes from the microbiomes of both complete and cultured microbial communities from Donor 1 but not from Donor 2. Two genes conferring amikacin resistance (either the 16S rRNA methylase rmtD or the aminoglycoside phosphotransferase aphA-3) were identified in 70% of the DNA fragments captured in selections for this phenotype.
DNA fragments from complete and cultured communities were cloned into an expression vector, electroporated into Escherichia coli, and screened for their ability to confer resistance to 15 different antibiotics. To this end, 10 μg of DNA purified from the two human donors' fecal microbiota, from the derived cultured communities, plus pooled contents of the arrayed strain collection were sheared to 1.5- to 4-kB fragments (Bioruptor XL), followed by size selection (1% agarose gel electrophoresis). Sheared DNA then was endrepaired (Epicentre Endlt Kit), column-purified (Qiagen Qia-Quick PCR Purification Kit), and concentrated in a vacuum evaporator (SpeedVac). […] Approximately 500 ng of the DNA fragments were ligated to 100 ng of the linearized vector in an overnight ligation reaction (Epicentre FastLink Ligation Kit). The ligation reaction was desalted by dialysis in double-distilled H2O and electroporated into E. coli MegaX DH10B T1R cells (Invitrogen). After 1 h of recovery, a small (1 μL) aliquot of the library was titered with serial dilutions onto LB agar plates containing 50 μg/mL kanamycin (to select for pZE21 transformants) and incubated at 37° C. for 16 h. The insert size distribution for each library was characterized by gel electrophoresis of amplicons obtained using primers flanking the HincII site in the multiple cloning site of pZE21 MCS1. The total size of each library was estimated by multiplying average insert size by the number of cfu in a given library. The remainder of the recovered cells was inoculated into 10 mL LB containing 50 μg/mL kanamycin and grown overnight, with shaking, at 27° C. for ˜16 h. The culture subsequently was diluted with an equal volume of LB medium containing 30% glycerol and stored at −80° C. before screening.
For functional selections, 100 μL of each library freezer stock (corresponding to 0.5-1×10^8 cfu) was plated on an LB agar plate containing kanamycin (50 μg/mL) plus one of 15 different antibiotics (Table 3). The total number of cells plated on each antibiotic represented ˜10 copies of each original unique transformant. Antibiotic-resistant colonies were scored after plates had been incubated at 37° C. for 16 h. Inserts contained in colonies with amikacin-, piperacillin- and piperacillin/tazobactam-resistant phenotypes were subjected to bidirectional Sanger sequencing (Beckman Coulter Genomics) using primers pZE21—81—104—57C (5′-[…] GGT-3′; SEQ ID NO 5) and pZE21—151—174rc—58C (5′-[…]-3′; SEQ ID NO 6). Resulting reads were trimmed to remove low-quality and vector sequences and subjected to within-library contig assembly (≧200 bp of 97% ID sequence required). Contigs and unassembled reads were mapped by BLAST to the National Center for Biotechnology Information (NCBI) nonredundant database and to a custom database of 122human gutmicrobial genomes. All sequence datasets have been deposited in the NCBI Sequence Read Archive (SRA) under accession no. […]

Compound | MIC | also measured
O=C(N[C@H](CO)[C@H](O)c1ccc([N+](=O)[O-])cc1)C(Cl)Cl [Cloramphenicol] | 8000 µg/mL | –
Piperacillin + Tazobactam | – | MIC (mg/mL), PI of PI + TZ (piperacillin part of the combination): 16 mg/mL; MIC (mg/mL), TZ of PI + TZ (tazobactam part of the combination): 4 mg/mL
CN(C)[C@@H]1C(=O)C(C(N)=O)=C(O)[C@@]2(O)C(=O)C3=C(O)c4c(O)cccc4[C@@](C)(O)[C@H]3C[C@@H]12 [Tetracyline] | 8000 µg/mL | –
Trimethoprim + Sulfamethoxazole | – | MIC (mg/mL), SX of TR + SX (sulfamethoxazole part of the combination): 38 mg/mL; MIC (mg/mL), TR of TR + SX (trimethoprim part of the combination): 2 mg/mL
Penicillin | 128000 µg/mL | –
Gentamicin | 16000 µg/mL | –
CN(C)[C@@H]1C(O)=C(C(N)=O)C(=O)[C@@]2(O)C(O)=C3C(=O)c4c(O)cccc4[C@@](C)(O)[C@H]3[C@H](O)[C@@H]12 [Oxytetracyline] | 8000 µg/mL | –

— patent US20140045744A1, “CULTURED COLLECTION OF GUT MICROBIAL COMMUNITY” (THE WASHINGTON UNIVERSITY, priority 2011, published 2014)
